Target: CD28/CD80 binding (Homo sapiens, UniProt P10747)
Assay: AFM measurement of binding force between imm-CD28 on chips and afm-CD80 on probe, blocking by drug
Text: (a) Immobilizing receptor and ligand [11]: At least one receptor is immobilized on a surface of each one of a plurality of chips and at least one ligand to the receptor is immobilized on a surface of a probe of an AFM. Therein, the chip can be extended to a micro-array chip immobilized with different kinds of receptors.
(b) Binding drug to receptor [12]: A drug is flowed through the chip to bind the drug to the receptor.
(c) Measuring binding force: The AFM is used to processing point-to-point detection for acquiring blocking effect by the drug according to the binding forces between the receptor and the ligand. If the binding force between the drug and the receptor is bigger than the binding force between the receptor and the ligand, the drug is identified as capable of breaking the bond between the receptor and the ligand, vice versa.
Take immuno-suppressive agent as an example. In FIG. 2, a receptor of T-cell membrane, CD28, is immobilized on chips, which is a protein labeled as imm-CD28 [21]. A ligand to CD28, ligand-CD80, is immobilized on a probe of an AFM, which is a receptor on immune B-cell membrane and is labeled as afm-CD80 [31]. Since the binding between CD80 and CD28 is related to human anaphylactic reaction, a small-molecule drug can be applied to block the binding between CD28 and CD80 for reducing immuno-reaction and anaphylactic reaction if the binding force between the drug and CD28 is bigger than that between CD80 and CD28.
Take an immuno-suppressive drug candidate, cynarin, as an example. The imm-CD28 [21] is immobilized on the chips and the afm-CD80 [31] is immobilized on the probe. Then the drug candidate, cynarin, is flowed through the chips to be bond with imm-CD28 [21] and separated from other components. In FIG. 3, a binding force (q1) between CD28 and CD80 on afm-CD80 [31] is great before adding cynarin. After adding the effective immuno-suppressive drug candidate 3, cynarin, the bond between CD28 and CD80 is blocked to form a very small binding force (q2). That is, q1>>q2. […]

Sequence of CD28/CD80 binding (P10747 19-152 limits assumed): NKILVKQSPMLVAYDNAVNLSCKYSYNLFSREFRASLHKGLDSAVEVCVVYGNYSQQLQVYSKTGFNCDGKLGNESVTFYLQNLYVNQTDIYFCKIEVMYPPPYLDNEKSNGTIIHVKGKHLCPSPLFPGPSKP

difference between the binding forces before and after adding cynarin (q1−q2) (167 pN−90 pN): about 77 pN
average binding force between CD28 and CD80 after adding cynarin (q2) (after adding cynarin, average of 100 positions on chip, before adding about 167 pN±14 (q1), FIG. 4B): about 90 pN
difference between the binding forces before and after adding cynarin, percent (relative to q1 167 pN): ~46%
SMILES: O=C(/C=C/c1ccc(O)c(O)c1)O[C@@H]1C[C@@](OC(=O)/C=C/c2ccc(O)c(O)c2)(C(=O)O)C[C@@H](O)[C@@H]1O [cynarin]
